Active and inactive are the calls of the source.
Columns and labels:
[1] = target: Melanocortin receptor 4 (Homo sapiens, UniProt P32245); assay: MC4R antagonist potency on cAMP, dose response, cell-based, TR-FRET, biased antagonists (AID 602298); type: functional;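 further: antagonist potency against agonist-stimulated cAMP production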
[2] = nonselective inhibitors of cellular cAMP signaling, dose response, counter-screen for MC4R biased antagonist project, cell-based, TR-FRET cAMP detection (AID 602305); type: functional;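 further: U2OS cells stimulated with forskolin near its EC80 as the cAMP inducer; potency is for inhibition of forskolin-stimulated cAMP signaling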
[3] = tested on: SN12K1; assay: cells; type: functional; details: Homo sapiens
[4] = tested on: P388; assay: cells; type: functional; details: Mus musculus
[5] = tested on: P388/ADR; assay: cells; type: functional; details: Mus musculus
[6] = tested on: INS1; assay: beta cell apoptosis inhibitors, cytokine rescue, dose response, luminescence, retest (AID 449756); type: functional, cell-based; details: Rattus norvegicus, INS1;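 further: cell death triggered by IL-1 beta plus TNF-alpha plus IFN-gamma mixture; protective hits raise ATP signal compared with cytokine alone wells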
[7] = target: Protein Wnt-3a (Mus musculus, UniProt P27467); assay: Wnt3a-driven reporter signaling inhibition, dose response, selectivity assay for Gli-SUFU antagonist project, Wnt-LIGHT cells, luminescence (AID 651570); type: functional; details: read-out: IC50_Mean;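 further: Wnt-LIGHT reporter cells stimulated with conditioned medium from Wnt3a-producing cells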
[8] = target: T1, Apoptotic protease-activating factor 1 (Homo sapiens, UniProt O14727); type: functional
T1 sequence (O14727 whole entry): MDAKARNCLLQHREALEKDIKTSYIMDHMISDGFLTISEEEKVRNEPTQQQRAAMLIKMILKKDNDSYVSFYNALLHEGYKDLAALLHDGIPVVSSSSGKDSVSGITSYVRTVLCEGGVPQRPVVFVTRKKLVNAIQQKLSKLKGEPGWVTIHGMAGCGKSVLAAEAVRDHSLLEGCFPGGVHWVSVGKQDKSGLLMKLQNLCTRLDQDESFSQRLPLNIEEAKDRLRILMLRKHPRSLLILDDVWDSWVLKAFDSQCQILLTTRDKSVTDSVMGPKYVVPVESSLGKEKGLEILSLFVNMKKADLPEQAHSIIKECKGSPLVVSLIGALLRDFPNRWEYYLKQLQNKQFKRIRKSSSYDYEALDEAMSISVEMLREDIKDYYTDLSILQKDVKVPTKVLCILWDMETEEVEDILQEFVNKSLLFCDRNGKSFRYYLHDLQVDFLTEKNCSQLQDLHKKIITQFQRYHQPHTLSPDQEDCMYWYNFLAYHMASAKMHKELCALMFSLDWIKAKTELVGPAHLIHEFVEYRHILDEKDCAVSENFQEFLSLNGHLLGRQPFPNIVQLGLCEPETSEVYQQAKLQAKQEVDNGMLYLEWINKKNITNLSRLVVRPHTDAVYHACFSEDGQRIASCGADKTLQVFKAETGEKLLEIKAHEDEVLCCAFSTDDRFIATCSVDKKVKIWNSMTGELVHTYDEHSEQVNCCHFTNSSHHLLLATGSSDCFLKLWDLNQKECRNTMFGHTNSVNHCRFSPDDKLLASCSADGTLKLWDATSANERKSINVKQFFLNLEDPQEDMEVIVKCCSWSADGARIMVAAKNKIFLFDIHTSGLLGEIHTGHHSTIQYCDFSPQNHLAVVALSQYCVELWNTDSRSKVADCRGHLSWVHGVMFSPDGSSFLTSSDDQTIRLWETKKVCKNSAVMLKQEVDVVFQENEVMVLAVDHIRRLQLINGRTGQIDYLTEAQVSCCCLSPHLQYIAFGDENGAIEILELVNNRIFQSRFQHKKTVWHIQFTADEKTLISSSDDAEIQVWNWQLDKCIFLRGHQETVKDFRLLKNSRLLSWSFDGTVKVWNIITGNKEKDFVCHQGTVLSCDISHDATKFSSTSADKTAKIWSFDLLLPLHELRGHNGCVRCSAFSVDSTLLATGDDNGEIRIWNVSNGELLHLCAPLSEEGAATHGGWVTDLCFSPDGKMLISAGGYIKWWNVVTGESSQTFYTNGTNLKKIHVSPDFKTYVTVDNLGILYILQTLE

[9] = tested on: Vero; assay: Vero cell cytotoxicity, cytotoxicity control for flavivirus capping enzyme inhibitors (AID 588742); type: functional; details: Chlorocebus sabaeus
[10] = target: T2, Trace amine-associated receptor 1 (Homo sapiens, UniProt Q96RJ0); assay: Counterscreen for agonists of the human trace amine associated receptor 1 (hTAAR1): Fluorescence-based cell-based high throughput dose response assay to identify hTAAR1 agonist that also desensitize TAAR1 receptor response.; type: functional
T2 sequence (Q96RJ0 whole entry): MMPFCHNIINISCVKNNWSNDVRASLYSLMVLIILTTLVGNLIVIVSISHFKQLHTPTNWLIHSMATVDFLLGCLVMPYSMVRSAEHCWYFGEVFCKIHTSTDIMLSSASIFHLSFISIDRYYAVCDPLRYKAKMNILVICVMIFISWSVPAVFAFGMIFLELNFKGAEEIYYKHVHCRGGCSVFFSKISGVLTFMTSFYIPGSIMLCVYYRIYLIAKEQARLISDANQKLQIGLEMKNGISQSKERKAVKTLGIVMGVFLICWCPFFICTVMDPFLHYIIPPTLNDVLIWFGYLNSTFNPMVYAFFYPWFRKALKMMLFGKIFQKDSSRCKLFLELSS

[11] = cells; type: functional, cell-based
[12] = cells; type: functional, cell-based; remark: listed apart in the source
[13] = target: T2, Trace amine-associated receptor 1; assay: Fluorescence-based cell-based high throughput dose response assay to identify agonists of the human trace amine associated receptor 1 (TAAR1).; type: functional
[14] = tested on: Streptococcus; assay: Group A Streptococcus viability loss, dose response, counter-screen for streptokinase expression inhibitor project, luminescence, BacTiterGlo (AID 1915); type: functional, organism-based;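 further: potency for reduction of bacterial viability or growth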
[15] = target: T3, Small ubiquitin-related modifier 1 (Homo sapiens, UniProt P63165); assay: inhibitors of SUMO1 peptide binding, dose response, biochemical, fluorescence polarization, uHTS hits (AID 624382); type: functional; details: read-out: IC50_Mean
[16] = target: Eukaryotic translation initiation factor 4E (Mus musculus, UniProt P63073); assay: eIF4E–eIF4G protein interaction inhibitors, dose response, biochemical, TR-FRET (AID 855); type: functional;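 further: potency for disrupting eIF4E binding to eIF4GI seen as loss of FRET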
[17] = target: T4, Streptokinase A (Streptococcus pyogenes serotype M1, UniProt P10520); assay: S. pyogenes streptokinase expression inhibitors, potency, dose response, plasminogen activation absorbance, OD405 (AID 1914); type: functional, Streptococcus pyogenes M1 GAS;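 further: secreted streptokinase activity via plasminogen activation per viability signal from cell pellet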
T4 sequence (P10520 whole entry): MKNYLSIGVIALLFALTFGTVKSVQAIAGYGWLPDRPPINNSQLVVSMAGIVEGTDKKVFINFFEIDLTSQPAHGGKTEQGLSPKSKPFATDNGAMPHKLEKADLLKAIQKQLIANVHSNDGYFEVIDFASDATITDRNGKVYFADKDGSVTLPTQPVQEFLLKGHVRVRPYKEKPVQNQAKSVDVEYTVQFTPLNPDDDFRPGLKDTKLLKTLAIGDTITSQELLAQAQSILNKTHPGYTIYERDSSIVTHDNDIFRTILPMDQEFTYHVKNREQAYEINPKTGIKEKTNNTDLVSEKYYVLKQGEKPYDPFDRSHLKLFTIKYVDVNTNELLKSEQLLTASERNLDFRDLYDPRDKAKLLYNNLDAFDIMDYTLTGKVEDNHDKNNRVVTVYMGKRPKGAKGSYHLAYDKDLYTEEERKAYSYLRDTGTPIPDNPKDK

[18] = target: Induced myeloid leukemia cell differentiation protein Mcl-1 (Homo sapiens, UniProt Q07820); type: functional
[19] = target: Genome polyprotein (dengue virus type 2, UniProt P29990); assay: Dengue-2 NS5 methyltransferase inhibitors, primary screen, biochemical, confirmation dose response (AID 588689); type: functional
[20] = target: T3, Small ubiquitin-related modifier 1; assay: inhibitors of SUMO1 partner interactions, dose response, biochemical, FRET (AID 624383); type: functional; details: read-out: IC50_Mean
[21] = tested on: Streptococcus sp. 'group A'; assay: growth inhibition of control SK(-) GAS strain, dose response, counter-screen for streptokinase expression inhibitor project, luminescence, kanamycin, BacTiterGlo, confirmation (AID 1900); type: functional, organism-based
[22] = target: T5, Aminopeptidase N (Plasmodium falciparum FcB1/Columbia, UniProt O96935); assay: P. falciparum M1AAP inhibitors, biochemical, fluorogenic H-Leu-NHMec substrate, 1536-well (AID 1445); set-up: species or system Plasmodium falciparum 3D7, 3D7
T5 sequence (O96935 whole entry): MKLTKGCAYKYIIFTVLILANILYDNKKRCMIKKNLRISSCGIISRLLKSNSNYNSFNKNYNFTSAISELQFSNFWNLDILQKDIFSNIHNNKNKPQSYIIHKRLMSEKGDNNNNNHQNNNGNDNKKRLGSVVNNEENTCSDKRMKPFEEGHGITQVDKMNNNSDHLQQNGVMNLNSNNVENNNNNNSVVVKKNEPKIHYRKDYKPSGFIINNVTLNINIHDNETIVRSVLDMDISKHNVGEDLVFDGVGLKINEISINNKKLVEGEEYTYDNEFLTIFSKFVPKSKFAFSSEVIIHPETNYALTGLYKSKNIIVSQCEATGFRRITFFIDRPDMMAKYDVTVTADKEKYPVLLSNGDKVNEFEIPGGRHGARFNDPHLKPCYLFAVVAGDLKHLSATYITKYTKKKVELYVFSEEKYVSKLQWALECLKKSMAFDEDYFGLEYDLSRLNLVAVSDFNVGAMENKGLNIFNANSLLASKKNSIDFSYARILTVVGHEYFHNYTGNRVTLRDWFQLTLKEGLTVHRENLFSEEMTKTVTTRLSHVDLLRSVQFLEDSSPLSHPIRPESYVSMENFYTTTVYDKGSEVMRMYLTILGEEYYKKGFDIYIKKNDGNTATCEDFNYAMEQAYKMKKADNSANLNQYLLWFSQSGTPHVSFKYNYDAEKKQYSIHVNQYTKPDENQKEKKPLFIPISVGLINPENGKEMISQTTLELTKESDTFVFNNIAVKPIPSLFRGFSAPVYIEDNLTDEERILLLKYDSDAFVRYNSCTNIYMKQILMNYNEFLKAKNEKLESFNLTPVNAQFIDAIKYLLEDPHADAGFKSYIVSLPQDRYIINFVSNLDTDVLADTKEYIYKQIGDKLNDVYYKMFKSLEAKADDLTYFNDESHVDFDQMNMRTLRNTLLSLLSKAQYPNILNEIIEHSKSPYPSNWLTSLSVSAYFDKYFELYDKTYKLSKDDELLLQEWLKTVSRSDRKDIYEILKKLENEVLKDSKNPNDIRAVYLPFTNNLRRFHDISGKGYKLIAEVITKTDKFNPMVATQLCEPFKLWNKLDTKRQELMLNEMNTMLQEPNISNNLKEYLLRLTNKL

Chain of Melanocortin receptor 4 (P32245 whole entry): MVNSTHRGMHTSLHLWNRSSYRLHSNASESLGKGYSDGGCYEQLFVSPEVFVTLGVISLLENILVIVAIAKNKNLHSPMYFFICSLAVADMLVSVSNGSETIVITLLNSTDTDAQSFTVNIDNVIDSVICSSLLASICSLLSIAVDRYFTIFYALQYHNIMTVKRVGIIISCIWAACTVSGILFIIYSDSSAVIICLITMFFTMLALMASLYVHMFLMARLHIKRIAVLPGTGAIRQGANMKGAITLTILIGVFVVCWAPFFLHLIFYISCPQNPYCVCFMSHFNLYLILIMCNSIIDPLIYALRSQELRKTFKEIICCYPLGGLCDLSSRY
Chain of Protein Wnt-3a (P27467 whole entry): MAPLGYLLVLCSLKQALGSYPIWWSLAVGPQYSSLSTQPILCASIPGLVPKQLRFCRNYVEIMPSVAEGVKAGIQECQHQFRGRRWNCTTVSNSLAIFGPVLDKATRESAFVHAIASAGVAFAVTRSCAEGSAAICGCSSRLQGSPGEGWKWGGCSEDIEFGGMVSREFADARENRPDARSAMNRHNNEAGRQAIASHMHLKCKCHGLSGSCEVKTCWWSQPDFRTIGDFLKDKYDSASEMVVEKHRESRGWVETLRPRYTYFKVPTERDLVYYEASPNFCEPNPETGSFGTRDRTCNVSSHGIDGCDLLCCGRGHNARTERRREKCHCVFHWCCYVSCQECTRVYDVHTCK
T3 sequence (P63165 whole entry): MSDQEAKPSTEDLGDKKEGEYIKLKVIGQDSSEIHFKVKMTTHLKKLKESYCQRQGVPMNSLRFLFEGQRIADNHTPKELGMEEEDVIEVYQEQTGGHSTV
Chain of Genome polyprotein (P29990 2492-3391 limits assumed): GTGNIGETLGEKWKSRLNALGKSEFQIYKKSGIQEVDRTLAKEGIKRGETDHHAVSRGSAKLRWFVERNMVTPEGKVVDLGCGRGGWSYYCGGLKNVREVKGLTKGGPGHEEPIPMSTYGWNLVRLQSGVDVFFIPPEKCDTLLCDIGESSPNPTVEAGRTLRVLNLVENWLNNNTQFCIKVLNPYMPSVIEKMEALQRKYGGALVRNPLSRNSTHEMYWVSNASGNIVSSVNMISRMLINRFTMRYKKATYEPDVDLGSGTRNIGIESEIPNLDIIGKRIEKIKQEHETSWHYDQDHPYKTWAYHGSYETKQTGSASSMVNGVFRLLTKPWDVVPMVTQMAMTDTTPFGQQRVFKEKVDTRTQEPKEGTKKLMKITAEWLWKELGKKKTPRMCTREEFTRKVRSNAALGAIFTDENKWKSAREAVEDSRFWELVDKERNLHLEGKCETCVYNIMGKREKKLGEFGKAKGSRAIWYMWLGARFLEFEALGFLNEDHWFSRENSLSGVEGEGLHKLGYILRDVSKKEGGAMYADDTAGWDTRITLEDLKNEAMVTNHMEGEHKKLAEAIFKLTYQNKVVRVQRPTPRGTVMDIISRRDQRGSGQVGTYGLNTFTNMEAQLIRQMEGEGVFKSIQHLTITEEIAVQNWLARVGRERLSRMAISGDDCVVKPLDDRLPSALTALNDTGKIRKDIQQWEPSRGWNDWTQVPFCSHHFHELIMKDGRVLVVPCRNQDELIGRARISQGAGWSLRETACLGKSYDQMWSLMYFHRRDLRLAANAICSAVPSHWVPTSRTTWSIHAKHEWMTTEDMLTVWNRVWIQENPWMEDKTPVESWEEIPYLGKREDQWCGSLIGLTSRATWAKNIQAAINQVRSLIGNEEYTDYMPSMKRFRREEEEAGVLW
Chain of Induced myeloid leukemia cell differentiation protein Mcl-1 (Q07820 whole entry): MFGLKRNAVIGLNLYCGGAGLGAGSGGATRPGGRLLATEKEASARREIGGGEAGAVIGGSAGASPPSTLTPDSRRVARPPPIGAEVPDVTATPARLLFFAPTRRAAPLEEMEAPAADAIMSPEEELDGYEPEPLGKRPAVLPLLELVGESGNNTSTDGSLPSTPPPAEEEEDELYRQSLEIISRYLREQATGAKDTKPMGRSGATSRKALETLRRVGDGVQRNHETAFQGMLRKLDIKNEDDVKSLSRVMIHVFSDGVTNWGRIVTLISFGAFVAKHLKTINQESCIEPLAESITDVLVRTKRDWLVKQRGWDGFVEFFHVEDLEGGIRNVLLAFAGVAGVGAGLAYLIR
Chain of Eukaryotic translation initiation factor 4E (P63073 whole entry): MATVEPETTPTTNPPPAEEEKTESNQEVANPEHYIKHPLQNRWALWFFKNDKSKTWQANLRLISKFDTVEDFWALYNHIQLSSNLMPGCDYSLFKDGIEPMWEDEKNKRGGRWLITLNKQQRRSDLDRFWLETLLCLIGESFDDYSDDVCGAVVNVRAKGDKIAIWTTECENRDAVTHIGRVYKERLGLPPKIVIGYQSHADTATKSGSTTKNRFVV

In the case of `c1ccc(COc2ccc(-c3cc4nc(NCCN5CCOCC5)ccn4n3)cc2)cc1`, the IC50 [1] is reported as 20 µM (inactive) and the IC50 [2] is reported as > 64.6 µM (inactive).
For `ClCCCN1CCN(CCCl)CC1`, the GI50 [3] was 109 µM (inactive), the GI50 [4] was 17.7 µM (inactive) and the GI50 [5] was 27 µM (inactive).
For `CCN(c1ccc(OCC(=O)OCC(=O)c2c(N)n(C)c(=O)n(C)c2=O)cc1)S(=O)(=O)c1ccccc1`, the IC50 [1] was > 7.18 µM (active) and the IC50 [2] was > 64.6 µM (inactive).
In the case of `C=C1C(=O)O[C@@H]2[C@H](O)[C@@H](C)[C@@H]3C=CC(=O)[C@@]3(C)[C@H](OC(=O)C=C(C)C)[C@H]12`, the GI50 [3] is reported as 0.681 µM (active), the GI50 [4] is reported as 0.194 µM (active) and the GI50 [5] is reported as 0.141 µM (active).
With `O=C(NC(c1cccnc1)C(F)(F)F)c1cc(COc2ccc3c(c2)CCCC3)on1` (stereo unspecified) the AC50 [6] was 3.48 µM (active) and the IC50 [7] was 40.4 µM (inactive).
With `CCN1CCN(C2=C(NS(=O)(=O)c3ccccc3)C(=O)c3ccccc3C2=O)CC1` the AC50 [6] was 5.62 µM (active), the IC50 [8] was 19.1 µM (active) and the CC50 [9] was 24.8 µM (active).
In the case of `O=C(O)C1CCCCC1C(=O)NCCc1ccc(F)cc1` (stereo unspecified), the IC50 [10] is reported as 8.15 µM (active), the EC50 [11] is reported as > 29.9 µM (inactive) and the IC50 [12] is reported as > 29.9 µM (inactive). For the same compound, the EC50 [13] was 1.39 µM (active).
In the case of `Cc1cccc(CCNCc2cc3cc(C)cc(C)c3nc2O)c1`, the IC50 [10] is reported as 1.84 µM (active), the EC50 [11] is reported as > 29.9 µM (inactive) and the IC50 [12] is reported as > 29.9 µM (inactive). The EC50 [13] was 0.73 µM (active).
In the case of `O=C(Nc1nc2cc(Cl)ccc2s1)C1CCCN(S(=O)(=O)c2cccc3cccnc23)C1` (stereo unspecified), the IC50 [1] is reported as > 64.6 µM (inactive) and the IC50 [2] is reported as > 64.6 µM (inactive).
For `CCCCCCCCCCCCCCCCCCOP(=O)([O-])OCC[N+](C)(C)C` [OCTADECYLPHOSPHONOCHOLINE], the GI50 [3] was 13.7 µM (inactive), the GI50 [4] was 3.78 µM (inactive) and the GI50 [5] was 11.1 µM (inactive).
With `CCN1C(=O)/C(=C\c2ccc(-c3ccc([N+](=O)[O-])cc3OC)o2)S/C1=N\c1cccc(C(=O)O)c1` the EC50 [14] was 8.58 µM (active), the IC50 [15] was > 66.6 µM (inactive) and the IC50 [16] was 50 µM (inactive). The EC50 [17] was > 150 µM (not active), the IC50 [18] was 6.7 µM (active) and the IC50 [19] was 64.5 µM (active). The IC50 [20] was 25.8 µM (inactive), the CC50 [9] was > 40 µM (active) and the EC50 [21] was 3.17 µM (active). For the same compound, the IC50 [22] was 2.2 µM (active).
For `Cc1ccnc(NC(=O)Nc2ccc3c(c2)OCO3)c1`, the IC50 [10] was > 29.9 µM (inactive), the EC50 [11] was > 29.9 µM (inactive) and the IC50 [12] was > 29.9 µM (inactive). For the same compound, the EC50 [13] was > 29.9 µM (inactive).
For `Nc1nc(=O)c2c([nH]1)NCC(CNc1ccc(C(=O)N[C@@H](CCC(=O)O)C(=O)O)cc1)N2C=O` (stereo partly specified) [LEUCOVORIN CALCIUM], the GI50 [3] was > 125 µM (inactive), the GI50 [4] was > 125 µM (inactive) and the GI50 [5] was > 124 µM (inactive).
In the case of `C(#Cc1ccccc1)C[N+]1(CC#Cc2ccccc2)CCCC1`, the IC50 [7] is reported as 8.34 µM (active).
